Results as given in ChEMBL document CHEMBL3758122, “Multitarget opioid ligands in pain relief: New players in an old game” (Eur J Med Chem, 2016).
Starred links: 1 amine or outer side, 2 acyl side, 3 side chain; linkers in the order of their positions; H or OH if unused. Positions of bridges follow the written chain, without caps; N, C: chain ends. Non-standard residues stand in square brackets, D forms with d. Residues, ends and D or L forms follow the SMILES beside them. *: point of attachment. Dmt = Cc1cc(O)cc(C)c1C[C@H](N)C(=O)O; Tic = O=C(O)[C@@H]1Cc2ccccc2CN1; dTic = O=C(O)[C@H]1Cc2ccccc2CN1; NHBn = c1ccc(CN*)cc1; CH2 = C([*:1])[*:2]; NHPh = c1ccc(N*)cc1

Assays:
[1] = biological target: T1, Delta-type opioid receptor (Homo sapiens, UniProt P41143); assay: Binding affinity at delta opioid receptor (unknown origin)
[2] = biological target: T2, Kappa-type opioid receptor (Homo sapiens, UniProt P41145); assay: Binding affinity to kappa opioid receptor (unknown origin)
[3] = biological target: T3, Mu-type opioid receptor (Homo sapiens, UniProt P35372); assay: Binding affinity at mu opioid receptor (unknown origin)
[4] = biological target: T1, Delta-type opioid receptor; assay: Antagonist activity at human delta opioid receptor expressed in CHO cell membrane assessed as inhibition of DPDPE-induced [35S]-GTP-gammaS binding; format: cell membranes
[5] = biological target: Delta-type opioid receptor (Mus musculus) (UniProt P32300); assay: Antagonist activity at delta-opioid receptor in mouse vas deferens; format: tissue-based
[6] = system: Rattus norvegicus; assay: Analgesic activity in sc dosed rat by tail flick test; format: functional
[7] = system: Mus musculus; assay: Antinociceptive activity in icv dosed mouse after 20 mins by tail flick test; format: functional
[8] = biological target: Mu-type opioid receptor (Rattus norvegicus) (UniProt P33535); assay: (§1) Agonist activity at rat mu opioid receptor transfected in C6 cells by [35S]GTPgammaS binding assay; format: functional, cell-based
[9] = biological target: Delta-type opioid receptor (Rattus norvegicus) (UniProt P33533); assay: (§2) Agonist activity at rat delta opioid receptor transfected in C6 cells by [35S]GTPgammaS binding assay; format: functional, cell-based
[10] = biological target: Delta-type opioid receptor (Rattus norvegicus, UniProt P33533); assay: as §2; format: functional, cell-based
[11] = biological target: T4, Delta-type opioid receptor (Mus musculus, UniProt P32300); assay: Agonist activity at delta-opioid receptor in mouse vas deferens; format: tissue-based
[12] = biological target: T1, Delta-type opioid receptor; assay: Agonist activity at human delta-opioid receptor expressed in CHO cells by [35S]GTPgammaS binding assay; format: functional, cell-based
[13] = biological target: T3, Mu-type opioid receptor; assay: Displacement of [3H]DAMGO from human mu opioid receptor expressed in CHO cell membrane; format: cell membranes
[14] = biological target: T1, Delta-type opioid receptor; assay: Displacement of [3H]naltrindole from human delta opioid receptor expressed in CHO cell membrane; format: cell membranes
[15] = biological target: T3, Mu-type opioid receptor; assay: Agonist activity at human mu opioid receptor expressed in CHO cells by [35S]GTP-gammaS binding assay
[16] = biological target: T1, Delta-type opioid receptor; assay: Antagonist activity at human delta opioid receptor expressed in CHO cell membrane assessed as inhibition of […]-induced [35S]-GTP-gammaS binding; format: cell membranes
[17] = biological target: T3, Mu-type opioid receptor; assay: Partial agonist activity at mu opioid receptor (unknown origin) expressed in CHO cell membrane assessed as stimulation of [35S]GTP-gamma-S binding; format: cell membranes
[18] = biological target: T3, Mu-type opioid receptor; assay: Displacement of [3H]D-Ala2,N-Me-Phe4,Gly5-ol]-Enkephalin from human mu opioid receptor expressed in CHO cell membrane; format: cell membranes
[19] = system: Mus musculus; assay: Antinociceptive activity in sc dosed Kunming mouse measured after 30 mins by hot plate test; format: functional; details: 0.5 h
[20] = biological target: T2, Kappa-type opioid receptor; assay: Displacement of [3H]U69,593 from human kappa opioid receptor expressed in CHO cell membrane; format: cell membranes
[21] = system: Mus musculus; assay: Toxicity in sc dosed Kunming mouse assessed as sedation by rotarod test; format: organism-based; details: in vivo
[22] = biological target: T1, Delta-type opioid receptor; assay: Displacement of [3H]DPDPE from human delta opioid receptor expressed in CHO cells; format: cell-based
[23] = system: Mus musculus; assay: Antinociceptive activity in sc dosed Swiss Webster mouse measured after 30 mins by hot plate test; format: functional; details: 0.5 h
[24] = biological target: T1, Delta-type opioid receptor; assay: Antagonist activity at […] delta opioid receptor in CD1 mouse assessed as electrically induced twitches
[25] = biological target: Mu-type opioid receptor (Cavia porcellus, UniProt P97266); assay: Agonist activity at mu-opioid receptor in guinea pig ileum assessed as inhibition of electrically induced twitches; format: tissue-based
[26] = biological target: Kappa-type opioid receptor (Rattus norvegicus, UniProt P34975); assay: Displacement of [3H]DAMGO from kappa opioid receptor in albino Sprague-Dawley rat after 90 mins by liquid scintillation
[27] = biological target: T2, Kappa-type opioid receptor; assay: Agonist activity at human kappa opioid receptor expressed in CHO cell membrane by [35S]GTP-gammaS binding assay
[28] = biological target: T2, Kappa-type opioid receptor; assay: Agonist activity at kappa opioid receptor (unknown origin) assessed as [35S]GTPgammaS binding by cell based assay; format: functional
[29] = biological target: T3, Mu-type opioid receptor; assay: Agonist activity at mu opioid receptor (unknown origin) assessed as [35S]GTPgammaS binding by cell based assay; format: functional
[30] = biological target: T1, Delta-type opioid receptor; assay: Partial agonist activity at delta opioid receptor (unknown origin) assessed as inhibition of adenylyl cyclase activity
[31] = biological target: T1, Delta-type opioid receptor; assay: Partial agonist activity at delta opioid receptor (unknown origin) assessed as [35S]GTPgammaS binding by cell based assay
[32] = biological target: T4, Delta-type opioid receptor; assay: Antagonist activity at delta-opioid receptor in mouse vas deferens assessed as inhibition of DPDPE-induced inhibition of electrically induced twitches; format: tissue-based; details: read-out: pA2 (converted)
[33] = biological target: T3, Mu-type opioid receptor; assay: Displacement of [3H]DPN from human mu opioid receptor expressed in CHO cells by liquid scintillation counting; format: cell-based
[34] = biological target: T1, Delta-type opioid receptor; assay: Displacement of [3H]DPN from human delta opioid receptor expressed in CHO cells by liquid scintillation counting; format: cell-based
[35] = biological target: Mu-type opioid receptor (Rattus norvegicus, UniProt P33535); assay: as §1; format: functional, cell-based
Sequence of Mu-type opioid receptor (Rattus norvegicus, UniProt P33535) (P33535 whole entry): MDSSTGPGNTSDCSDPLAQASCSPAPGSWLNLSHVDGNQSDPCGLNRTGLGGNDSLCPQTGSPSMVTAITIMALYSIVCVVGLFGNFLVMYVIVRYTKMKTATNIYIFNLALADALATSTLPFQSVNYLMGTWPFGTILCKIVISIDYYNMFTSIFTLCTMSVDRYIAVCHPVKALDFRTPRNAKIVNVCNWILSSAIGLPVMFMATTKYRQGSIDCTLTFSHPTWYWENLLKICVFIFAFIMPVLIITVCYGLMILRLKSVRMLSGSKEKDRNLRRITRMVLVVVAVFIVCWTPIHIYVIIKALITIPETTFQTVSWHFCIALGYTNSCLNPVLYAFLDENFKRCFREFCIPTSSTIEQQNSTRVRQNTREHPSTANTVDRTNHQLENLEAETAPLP

Sequence of Delta-type opioid receptor (Rattus norvegicus) (P33533 whole entry): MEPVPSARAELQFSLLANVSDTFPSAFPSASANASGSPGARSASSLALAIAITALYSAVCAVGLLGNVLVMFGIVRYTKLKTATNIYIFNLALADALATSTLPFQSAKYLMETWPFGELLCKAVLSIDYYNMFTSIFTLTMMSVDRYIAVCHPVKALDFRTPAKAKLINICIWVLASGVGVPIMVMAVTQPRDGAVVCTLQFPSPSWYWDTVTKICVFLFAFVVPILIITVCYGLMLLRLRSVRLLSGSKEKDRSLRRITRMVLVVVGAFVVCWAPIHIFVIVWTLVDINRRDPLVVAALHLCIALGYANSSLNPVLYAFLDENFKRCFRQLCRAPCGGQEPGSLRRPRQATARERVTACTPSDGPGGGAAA
T2 sequence (P41145 whole entry): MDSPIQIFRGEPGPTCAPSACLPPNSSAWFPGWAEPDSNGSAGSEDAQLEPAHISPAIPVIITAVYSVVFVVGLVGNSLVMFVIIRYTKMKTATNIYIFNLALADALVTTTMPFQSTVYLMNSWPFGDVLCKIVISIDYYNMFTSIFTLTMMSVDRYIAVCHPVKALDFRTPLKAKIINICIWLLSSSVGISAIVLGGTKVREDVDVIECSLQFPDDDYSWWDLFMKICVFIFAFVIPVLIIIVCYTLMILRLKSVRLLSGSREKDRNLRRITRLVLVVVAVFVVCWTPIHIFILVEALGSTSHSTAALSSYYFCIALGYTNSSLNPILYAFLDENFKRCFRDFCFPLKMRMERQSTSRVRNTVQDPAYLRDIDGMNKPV
Sequence of Mu-type opioid receptor (Rattus norvegicus) (P33535 whole entry): as the sequence (P33535 whole entry) above
T3 sequence (P35372 whole entry): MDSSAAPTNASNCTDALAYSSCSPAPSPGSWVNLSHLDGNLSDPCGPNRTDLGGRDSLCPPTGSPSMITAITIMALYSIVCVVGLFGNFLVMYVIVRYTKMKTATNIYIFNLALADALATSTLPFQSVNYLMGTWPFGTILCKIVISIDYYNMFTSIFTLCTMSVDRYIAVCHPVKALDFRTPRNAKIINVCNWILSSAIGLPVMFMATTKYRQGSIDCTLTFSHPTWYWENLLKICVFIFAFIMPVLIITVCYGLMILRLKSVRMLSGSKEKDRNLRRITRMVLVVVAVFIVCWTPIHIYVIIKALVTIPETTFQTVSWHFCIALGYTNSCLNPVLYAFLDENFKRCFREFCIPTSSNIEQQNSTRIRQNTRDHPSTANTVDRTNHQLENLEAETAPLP
T4 sequence (P32300 whole entry): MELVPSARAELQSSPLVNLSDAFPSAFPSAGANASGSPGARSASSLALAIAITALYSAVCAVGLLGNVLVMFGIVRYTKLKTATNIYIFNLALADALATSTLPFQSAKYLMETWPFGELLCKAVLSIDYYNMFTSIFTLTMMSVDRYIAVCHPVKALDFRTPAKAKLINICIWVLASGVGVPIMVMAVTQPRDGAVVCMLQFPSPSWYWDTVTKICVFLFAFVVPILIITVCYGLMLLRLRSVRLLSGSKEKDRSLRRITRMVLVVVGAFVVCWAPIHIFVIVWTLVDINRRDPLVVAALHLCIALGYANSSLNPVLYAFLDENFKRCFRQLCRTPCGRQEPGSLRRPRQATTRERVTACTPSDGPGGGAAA
T1 sequence (P41143 whole entry): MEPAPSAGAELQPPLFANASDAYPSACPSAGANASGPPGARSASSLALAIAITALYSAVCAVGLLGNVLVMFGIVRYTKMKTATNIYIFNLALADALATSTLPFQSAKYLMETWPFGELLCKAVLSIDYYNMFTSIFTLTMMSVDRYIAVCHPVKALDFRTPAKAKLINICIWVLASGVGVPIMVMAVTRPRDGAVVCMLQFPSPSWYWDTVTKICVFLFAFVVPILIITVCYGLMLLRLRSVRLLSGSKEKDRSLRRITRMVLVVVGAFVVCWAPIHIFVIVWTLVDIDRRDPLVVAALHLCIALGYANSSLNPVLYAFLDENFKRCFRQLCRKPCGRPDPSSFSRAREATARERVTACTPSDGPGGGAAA
Sequence of Delta-type opioid receptor (Rattus norvegicus, UniProt P33533) (P33533 whole entry): as the sequence (P33533 whole entry) above
Sequence of Mu-type opioid receptor (Cavia porcellus, UniProt P97266) (P97266 whole entry): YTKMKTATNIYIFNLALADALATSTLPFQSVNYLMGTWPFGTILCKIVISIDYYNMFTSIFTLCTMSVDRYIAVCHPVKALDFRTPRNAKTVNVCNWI
Sequence of Kappa-type opioid receptor (Rattus norvegicus, UniProt P34975) (P34975 whole entry): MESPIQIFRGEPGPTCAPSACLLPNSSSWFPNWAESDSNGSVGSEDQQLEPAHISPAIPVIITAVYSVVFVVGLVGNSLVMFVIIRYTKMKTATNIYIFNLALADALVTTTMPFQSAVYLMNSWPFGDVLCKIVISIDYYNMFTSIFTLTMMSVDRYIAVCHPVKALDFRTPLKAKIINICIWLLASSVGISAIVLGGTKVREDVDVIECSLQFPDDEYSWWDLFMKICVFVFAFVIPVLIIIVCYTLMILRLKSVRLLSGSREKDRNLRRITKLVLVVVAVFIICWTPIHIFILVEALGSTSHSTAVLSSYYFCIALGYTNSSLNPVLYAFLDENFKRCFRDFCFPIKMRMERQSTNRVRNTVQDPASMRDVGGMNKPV
Sequence of Delta-type opioid receptor (Mus musculus) (P32300 whole entry): as the sequence (P32300 whole entry) above

CO[C@@]12CCC(=O)[C@]3(C)Oc4c(O)ccc5c4[C@@]31CCN(C)[C@@H]2C5
Ki [1]: 13.3 nM | Ki [2]: 25.2 nM | Ki [3]: 0.01 nM

Cc1cc(O)cc(C)c1C[C@H](N)C(=O)N1Cc2ccccc2C[C@@H]1C(=O)NCC(=O)NCc1ccccc1 (H-[Dmt]-[dTic]-Gly-NHBn)
pKb [4]: 9.81

N[C@@H](Cc1ccc(O)cc1)C(=O)N1Cc2ccccc2CC1CN[C@@H](Cc1ccccc1)C(=O)NC(CC1CCCCC1)C(=O)O (stereo not given in full)
Ki [1]: 0.259 nM | Ke [5]: 0.175 nM | Ki [3]: 1050 nM

Cc1cc(O)cc(C)c1C[C@H](N)C(=O)N1Cc2ccccc2C[C@H]1C(=O)NCC(=O)Nc1ccccc1 (H-[Dmt]-[Tic]-Gly-NHPh)
Ki [1]: 0.16 nM | Ki [3]: 0.042 nM

C[C@H]1[C@H]2Cc3ccc(O)cc3[C@]1(C)CCN2CCC(=O)Nc1ccccc1
Ki [1]: 29 nM | Ki [3]: 0.83 nM | ED50 [6]: 2.03 mg/kg

O=C(CCCCCCCCC(=O)Oc1ccc2c(c1)[C@@]13CCCC[C@H]1[C@@H](C2)N(CC1CCC1)CC3)Oc1ccc2c(c1)[C@@]13CCCC[C@H]1[C@@H](C2)N(CC1CCC1)CC3
ED50 [7]: 3 nmol

CN1CC[C@]23c4c5ccc(O)c4O[C@H]2[C@@H](O)C=C[C@H]3[C@H]1C5 [MORPHINE]
ED50 [6]: 2.7 mg/kg

NC(=O)[C@@H]1CSSC[C@@H](NC(=O)[C@@H](N)Cc2ccc(O)cc2)C(=O)N[C@@H](Cc2ccccc2)C(=O)N[C@@H](Cc2ccccc2)C(=O)N1 (H-Y[dC]FFC-NH2; disulfide 2-5)
Emax [8]: 77% | Emax [9]: 69%

CCCC[C@@H]1NC(=O)[C@H](Cc2cccc3ccccc23)NC(=O)[C@H](NC(=O)[C@@H](N)Cc2ccc(O)cc2)CSSC[C@@H](C(N)=O)NC1=O
EC50 [10]: 22 nM

CCCC[C@@H]1NC(=O)[C@H](Cc2cccc3ccccc23)NC(=O)[C@@H](NC(=O)[C@@H](N)Cc2ccc(O)cc2)CSSC[C@H](C(=O)O)NC1=O
Emax [8]: 100% | Emax [9]: 100%

Cc1cc(O)cc(C)c1C[C@H](N)C(=O)N1Cc2ccccc2C[C@@H]1C(=O)NCc1nc2ccccc2[nH]1
EC50 [11]: 0.02 nM | EC50 [12]: 0.0813 nM | Ki [1]: 0.021 nM | Ki [3]: 0.5 nM

Cc1cc(O)cc(C)c1C[C@H](N)C(=O)N1Cc2ccccc2C[C@H]1C(=O)NCC(=O)N1CCc2ccccc2C1
Ki ([13]; cho): 3.3 nM | Ki ([14]; cho): 0.75 nM | EC50 ([15]; cho): 22 nM | IC50 ([16]; cho): 2.3 nM

Nc1nc2cc3c(cc2s1)CC1[C@@H]2CCCC[C@]32CCN1CC1CC1
EC50 [17]: 73 nM | Ki [18]: 1.5 nM | ED50 [19]: 1.46 mg/kg | Ki [20]: 0.049 nM | ED50 [21]: 1.94 mg/kg

Cc1cc(O)cc(C)c1C[C@H](N)C(=O)N1Cc2ccccc2C[C@@H]1C(=O)NCC(=O)N(c1ccccc1)c1ccccc1
Ki [13]: 1.71 nM | Ki [14]: 0.94 nM | EC50 [15]: 4.8 nM | IC50 [16]: 8.3 nM

CN1CC[C@]23c4c5ccc(O)c4O[C@@]2(CO)C(=O)CC[C@@]3(O)[C@H]1C5
Ki [13]: 3.2 nM | Ki [22]: 208 nM | EC50 [15]: 35 nM | ED50 [23]: 4.3 mg/kg

C=CCN1C[C@H](C)N([C@@H](c2cccc(O)c2)c2cccc(C(=O)N(C)c3cccc(F)c3)c2)C[C@H]1C
IC50 [24]: 3.4 nM | IC50 [25]: 1 nM | Ki [26]: 0.46 nM

O=C(/C=C/C(=O)Oc1ccc2c(c1)[C@@]13CCCC[C@H]1[C@@H](C2)N(CC1CCC1)CC3)Oc1ccc2c(c1)[C@@]13CCCC[C@H]1[C@@H](C2)N(CC1CCC1)CC3
EC50 [27]: 4.3 nM | ED50 [7]: 0.27 nmol

NC(=O)[C@H]1CSCSC[C@H](NC(=O)[C@@H](N)Cc2ccc(O)cc2)C(=O)N[C@@H](Cc2ccccc2)C(=O)N[C@@H](Cc2ccc3ccccc3c2)C(=O)N1
Ki [1]: 0.48 nM | Ki [2]: 1.3 nM | Emax [28]: 89% | Emax [29]: 99% | EC50 [30]: 36 nM | Ki [3]: 0.47 nM

Oc1ccc2c(c1)[C@@]13CCCC[C@H]1[C@@H](C2)N(CC1CCC1)CC3 [BUTORPHAN]
Ki [2]: 0.073 nM

O=C1c2ccc(O)cc2[C@@]23CCCC[C@H]2[C@@H]1N(CC1CCCO1)CC3 (stereo not given in full)
Ki [1]: 1 nM | Ki [2]: 0.18 nM | Ki [3]: 0.38 nM

Cc1cc(O)cc(C)c1C[C@H](N)C(=O)N1Cc2ccccc2C[C@H]1CN[C@@H](Cc1ccccc1)C(=O)N[C@@H](Cc1ccccc1)C(N)=O
Ki [1]: 0.44 nM | Ki [3]: 0.94 nM

CN1CC[C@]23c4c5ccc(O)c4O[C@@]2(C)c2[nH]c4ccccc4c2C[C@@]3(CCCc2ccccc2)[C@H]1C5
Ki [1]: 1.95 nM | EC50 [31]: 0.87 nM | EC50 [29]: 45.1 nM | Ki [3]: 10.2 nM

CCCC[C@@H]1NC(=O)[C@H](Cc2cccc3ccccc23)NC(=O)[C@@H](NC(=O)[C@@H](N)Cc2ccc(O)cc2)CSSC[C@H](C(N)=O)NC1=O
Emax [8]: 100% | Emax [9]: 100%

Cc1cc(O)cc(C)c1C[C@H](N)C(=O)N1Cc2ccccc2C[C@H]1C(=O)N[C@@H](Cc1ccccc1)C(=O)N[C@@H](Cc1ccccc1)C(N)=O (H-[Dmt][Tic]FF-NH2)
Ki [3]: 1.19 nM

NC(=O)[C@@H]1CSCSC[C@@H](NC(=O)[C@@H](N)Cc2ccc(O)cc2)C(=O)N[C@@H](Cc2ccccc2)C(=O)N[C@@H](Cc2ccccc2)C(=O)N1 (H-Y[dC]FFC-NH2; linker 2-5 via CH2)
Ki [1]: 1.8 nM | Ki [3]: 0.016 nM

Cc1cc(O)cc(C)c1C[C@H](N)C(=O)N1Cc2ccccc2C[C@H]1C(=O)NCC(=O)NCc1ccccc1 (H-[Dmt]-[Tic]-Gly-NHBn)
EC50 [11]: 2.57 nM | Ki [1]: 0.16 nM | Kb [32]: 0.708 nM | EC50 [25]: 31.6 nM | Ki [3]: 0.031 nM | Ki [33]: 16.2 nM | Ki [34]: 0.151 nM

CCCC[C@@H]1NC(=O)[C@H](Cc2cccc3ccccc23)NC(=O)[C@H](NC(=O)[C@@H](N)Cc2ccc(O)cc2)CSSC[C@@H](C(=O)O)NC1=O
EC50 [35]: 5.1 nM | EC50 [10]: 22 nM
